Assay results: patent US20200038513A1, “MODULATORS OF FAK PROTEOLYSIS AND ASSOCIATED METHODS OF USE” (ARVINAS OPERATIONS, INC., priority 2018, published 2020)

Legend:
[1] = system: S6RP; assay: Western blot of S6RP total levels in MDA-MB-231 cells; format: cell-based, human; settings: 10% FBS, varying concentrations
Experimental: If not indicated otherwise, cells were seeded and grown to 80% confluency and were treated with compound or control for 24 hours. Subsequently, the growth media was removed and the cells lysed by the addition of lysis buffer (25 mM Tris, pH 7.4; 1% NP-40, 0.25% deoxycholate, 1 mM sodium vanadate, 10 mM sodium fluoride, 10 mM sodium pyrophosphate, 20 mM β-glycerophosphate and 1× complete EDTA-free protease inhibitor cocktail (Roche)). After 20 minutes the mixture was spun down at 16,000×g for 10 minutes at 4° C. to pellet insoluble materials. Protein concentration of supernatants were determined via BCA assay (Thermo Fisher) before addition of NuPAGE sample buffer containing 5% β-Me and boiling at 95° C. for 10 minutes. Equal amounts of protein were subjected to SDS-PAGE and subsequent electrophoretic transfer onto nitrocellulose membrane. Rabbit antibodies were purchased from Cell Signaling: Fak (3285), p-Fak (3283), p-Paxillin (2541), p-Akt (S473)(4060), GAPDH (2118), Androgen Receptor (5153), p-Src(Y527)(2105), p-S6RP (2215). Mouse antibodies were purchased from Cell Signaling: tubulin (3873), S6RP (2317). […] Immunoblots were developed using enhanced chemiluminescence and visualized using a Bio-Rad Chemi-Doc MP Imaging System and quantitated with Image Lab v.5.2.1 software (Bio-Rad Laboratories). […]

[2] = biological target: T1, Fak (Homo sapiens, UniProt Q05397); assay: Kinase activity assay (Reaction Biology Corp.); format: biochemical; design: purchased Reaction Biology Corp. (contract assay service); settings: 10 μM ATP, n = 2
Experimental: Reactions were carried out at 10 μM ATP. IC50 values were calculated using Prism 7.0 (GraphPad).

[3] = system: MDA-MB-231 cells; assay: Wound healing assay; format: cell-based, human; settings: 24 hours
Experimental: MDA-MB-231 cells were maintained in complete growth medium (RPMI-1640) at 37° C. supplied with 5% CO2. Cells (1×10^6) were split in to a 12-well plate. After 24 hours an even wound was created across each well using a sterile 10 μL pipette tip and the cells were washed with warm phosphate-buffered solution (PBS) twice to remove any floating or dead cells. This time point was considered as 0 hours and cells were incubated in fresh medium containing exemplary compound or control as indicated, for 24 hours. Images of wounded area were captured at 0 hour and after 24 hours using a camera attached to a light microscope. Images were analyzed by ImageJ software and wounded area was quantified. The area of the remaining wound at 24 hours was subtracted from the area of the wound at 0 hour. Percent wound healing (migration) was calculated and data presented as a bar graph using Prism 7.0 (GraphPad). Differences between groups were analyzed by Welch's t-test and considered significant when p<0.05.
Since Fak is a key regulator of cell motility, exemplary compound 102 was evaluated for its effect on cell migration and invasion. […] Effects on cell migration were analyzed in a wound healing assay using the aggressive and invasive human TNBC cell line MDA-MB-231. […] Wound closure was quantified after 24 hours (FIGS. 13A and 13B).

[4] = biological target: T1, Fak; assay: Fak degradation, immunoblotting in PC3 cells; format: cell-based; settings: 24 hour treatment; for Dmax: PC-3, degradation maximum, n = 3
Experimental: PC3 cells were cultured in F12-K (Kaighn's Modification of Ham's F-12 Medium), supplemented with 10% fetal bovine serum (FBS) and 1% penicillin-streptomycin at 37° C. and 5% CO2.
If not indicated otherwise, cells were seeded and grown to 80% confluency and were treated with compound or control for 24 hours. […] After 20 minutes the mixture was spun down at 16,000×g for 10 minutes at 4° C. to pellet insoluble materials. Protein concentration of supernatants were determined via BCA assay (Thermo Fisher) before addition of NuPAGE sample buffer containing 5% β-Me and boiling at 95° C. for 10 minutes. Equal amounts of protein were subjected to SDS-PAGE and subsequent electrophoretic transfer onto nitrocellulose membrane. […] Immunoblots were developed using enhanced chemiluminescence and visualized using a Bio-Rad Chemi-Doc MP Imaging System and quantitated with Image Lab v.5.2.1 software (Bio-Rad Laboratories). Data analysis and statistics was performed using Prism 7.0 (GraphPad).
Examination of Target Protein (Fak) Degradation.

[5] = system: set of 468 kinases; assay: KinomeScan kinase engagement assay (DiscoverX); format: binding; settings: 1000 nM, 403 non-mutant kinases
Experimental: The Kinase engagement assay was performed by DiscoverX assessing binding abilities towards a set of 468 kinases.
Examination of Target Protein Selectivity. To assess the target selectivity of exemplary compound 102 over a large panel of different kinases, a DiscoverX KINOMEScan was performed. KINOMEScan measures compound binding to individual kinases via the compounds ability to compete/displace the kinases from an immobilized support that non-selectively binds kinase active sites. […] It appears that the slight loss in inhibitory potency due to linker and VHL ligand attachment results in greater selectivity.

[6] = system: p-S6RP(S240/S244); assay: Western blot validation of RPPA results in MDA-MB-231 cells; format: cell-based, human; settings: 10% FBS, varying concentrations
Experimental: (§1) If not indicated otherwise, cells were seeded and grown to 80% confluency and were treated with compound or control for 24 hours. Subsequently, the growth media was removed and the cells lysed by the addition of lysis buffer (25 mM Tris, pH 7.4; 1% NP-40, 0.25% deoxycholate, 1 mM sodium vanadate, 10 mM sodium fluoride, 10 mM sodium pyrophosphate, 20 mM β-glycerophosphate and 1× complete EDTA-free protease inhibitor cocktail (Roche)). After 20 minutes the mixture was spun down at 16,000×g for 10 minutes at 4° C. to pellet insoluble materials. Protein concentration of supernatants were determined via BCA assay (Thermo Fisher) before addition of NuPAGE sample buffer containing 5% β-Me and boiling at 95° C. for 10 minutes. Equal amounts of protein were subjected to SDS-PAGE and subsequent electrophoretic transfer onto nitrocellulose membrane. Rabbit antibodies were purchased from Cell Signaling: Fak (3285), p-Fak (3283), p-Paxillin (2541), p-Akt (S473)(4060), GAPDH (2118), Androgen Receptor (5153), p-Src(Y527)(2105), p-S6RP (2215). Mouse antibodies were purchased from Cell Signaling: tubulin (3873), S6RP (2317). Secondary antibody ∝-rabbit (31460) or ∝-mouse (31444) was coupled to horseradish peroxidase and purchased from Thermo Fisher. Immunoblots were developed using enhanced chemiluminescence and visualized using a Bio-Rad Chemi-Doc MP Imaging System and quantitated with Image Lab v.5.2.1 software (Bio-Rad Laboratories). Data analysis and statistics was performed using Prism 7.0 (GraphPad).
(§2) It has been previously shown that extranuclear AR is involved in cell migration and forms a multiprotein complex comprised of filamin A/β-1 integrin/Fak/AR in NIH3T3 fibroblasts that facilitates Fak activation. […] Phosphorylation of S6RP occurs via the Src-Fak-PI3K pathway and p-S6RP is required for the initiation of translation in response to cell growth and proliferation.

[7] = system: p-Src(Y527); assay: as above; format: cell-based, human; settings: 10% FBS, varying concentrations
Experimental: as §1, §2

[8] = system: p-Akt(S473); assay: as above; format: cell-based, human; settings: 10% FBS, varying concentrations
Experimental: as §1, §2

[9] = system: androgen receptor (AR); assay: as above; format: cell-based, human; settings: 10% FBS, varying concentrations
Experimental: as §1, §2

[10] = system: MDA-MB-231 cells; assay: Cell proliferation assay (MTS); format: cell-based, human; settings: 96 hours
Experimental: Cells were seeded in 96-well plates and treated with exemplary compound or control as indicated. At desired time points culture medium was supplemented with […] MTS (Promega) and […] phenazine methosulfate (Sigma) and incubated at 37° C. Mitochondrial reduction of MTS to the formazan derivative was monitored by measuring the medium's absorbance at 490 nm using a Wallac Victor 2 plate reader (Perkin-Elmer Life Sciences). Data analysis and statistics was performed using Prism 7.0 (GraphPad).

T1 sequence (Q05397 whole entry): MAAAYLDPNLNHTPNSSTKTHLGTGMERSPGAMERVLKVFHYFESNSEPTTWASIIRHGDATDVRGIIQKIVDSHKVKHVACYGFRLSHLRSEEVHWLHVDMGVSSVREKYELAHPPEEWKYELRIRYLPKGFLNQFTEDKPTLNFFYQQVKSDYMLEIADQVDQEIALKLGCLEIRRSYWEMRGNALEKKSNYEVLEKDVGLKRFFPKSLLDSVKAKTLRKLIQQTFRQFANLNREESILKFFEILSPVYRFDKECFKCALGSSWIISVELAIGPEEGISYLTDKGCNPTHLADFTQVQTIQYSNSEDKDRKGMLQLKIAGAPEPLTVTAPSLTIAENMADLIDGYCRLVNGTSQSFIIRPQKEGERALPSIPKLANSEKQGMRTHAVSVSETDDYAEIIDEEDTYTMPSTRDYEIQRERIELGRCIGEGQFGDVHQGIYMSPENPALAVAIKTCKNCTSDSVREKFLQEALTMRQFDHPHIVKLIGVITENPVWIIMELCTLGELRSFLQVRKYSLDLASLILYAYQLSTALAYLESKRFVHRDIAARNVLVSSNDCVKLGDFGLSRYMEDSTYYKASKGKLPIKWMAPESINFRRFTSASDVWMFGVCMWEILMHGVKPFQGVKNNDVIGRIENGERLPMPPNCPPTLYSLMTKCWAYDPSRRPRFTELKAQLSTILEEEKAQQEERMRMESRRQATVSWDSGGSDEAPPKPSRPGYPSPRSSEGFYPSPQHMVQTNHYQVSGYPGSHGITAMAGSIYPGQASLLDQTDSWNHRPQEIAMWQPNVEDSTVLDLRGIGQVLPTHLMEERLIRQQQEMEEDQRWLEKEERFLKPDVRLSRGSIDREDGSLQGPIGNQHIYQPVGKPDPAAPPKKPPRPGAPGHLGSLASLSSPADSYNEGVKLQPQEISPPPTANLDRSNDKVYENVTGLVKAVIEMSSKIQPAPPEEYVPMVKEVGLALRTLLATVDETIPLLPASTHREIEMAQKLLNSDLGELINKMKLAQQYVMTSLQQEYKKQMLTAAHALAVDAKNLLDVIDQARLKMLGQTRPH

Cc1ncsc1-c1ccc(CNC(=O)[C@@H]2C[C@@H](O)CN2C(=O)[C@@H](NC(=O)CCOCCOc2ccc(Nc3ncc(C(F)(F)F)c(NCc4cccc(N(C)S(C)(=O)=O)c4)n3)cc2)C(C)(C)C)cc1 [Compound 102, (2S,4R)-1-((S)-3,3-dimethyl-2-(3-(2-(4-((4-((3-(N-methylmethylsulfonamido)benzyl)amino)-5-(trifluoromethyl)pyrimidin-2-yl)amino)phenoxy)ethoxy)propanamido)butanoyl)-4-hydroxy-N-(4-(4-methylthiazol-5-yl)benzyl)pyrrolidine-2-carboxamide]
total S6RP levels (in words) [1]: unchanged
IC50 [2]: 6.5 nM
reduction of wound healing ([3]; 50 nM): 53%
impairment of wound closure ([3]; 250 nM): 70%
Dmax ([4]; PC3 cells): 99%
DC50 ([4]; half-maximal degradation concentration, PC3 cells): 3.3 nM
total Fak remaining ([4]; serum deprived PC3 cells, 10 nM): 34%
total Fak remaining ([4]; serum deprived PC3 cells, 50 nM): 5%
Fak levels ([4]; serum deprived PC3 cells, 100 nM through 1 μM): undetectable
Fak levels (rebound, hook effect) ([4]; serum deprived PC3 cells, 5 μM): 10%
Fak levels (rebound, hook effect) ([4]; serum deprived PC3 cells, 10 μM): 27%
Number of Hits, S(10) [5]: 7
Selectivity Score, S(1) [5]: 0.002
Selectivity Score, S(10) [5]: 0.017
Selectivity Score, S(35) [5]: 0.05
Number of Hits, S(35) ([5]; less than 35% of control remaining): 20
phosphorylation of S6RP (in words) [6]: reduced phosphorylation
p-Src(Y527) levels (in words) [7]: reduced levels
p-Akt(S473) levels (in words) [8]: reduced levels of p-Akt(S473)
AR levels (in words) [9]: reduction of AR levels
cell viability or proliferation (in words) [10]: do not affect cell viability or proliferation within four days

CNC(=O)c1ccc(Nc2ncc(C(F)(F)F)c(NCc3nccnc3N(C)S(C)(=O)=O)n2)cc1 [Defactinib, defactinib, reference compound]
Dmax ([4]; PC3 cells): 0%
